Test results as given in patent US10822349B2, “Macrocyclic purines for the treatment of viral infections” (JANSSEN SCIENCES IRELAND UNLIMITED COMPANY, priority 2012, dated 2020).

Experiments:
[1] = biological target: T1, human TLR7 (Homo sapiens, UniProt Q9NYK1); test: TLR7 cellular reporter assay (HEK293 TLR7-NFκB-luc); type: cell-based; settings: lowest effective concentration; HEK293 transiently transfected with TLR7 and NFκB-luc; 6 hours incubation
T1 construct: expressed in transfected cells; host or cells: HEK293
T1 sequence (Q9NYK1 27-1049): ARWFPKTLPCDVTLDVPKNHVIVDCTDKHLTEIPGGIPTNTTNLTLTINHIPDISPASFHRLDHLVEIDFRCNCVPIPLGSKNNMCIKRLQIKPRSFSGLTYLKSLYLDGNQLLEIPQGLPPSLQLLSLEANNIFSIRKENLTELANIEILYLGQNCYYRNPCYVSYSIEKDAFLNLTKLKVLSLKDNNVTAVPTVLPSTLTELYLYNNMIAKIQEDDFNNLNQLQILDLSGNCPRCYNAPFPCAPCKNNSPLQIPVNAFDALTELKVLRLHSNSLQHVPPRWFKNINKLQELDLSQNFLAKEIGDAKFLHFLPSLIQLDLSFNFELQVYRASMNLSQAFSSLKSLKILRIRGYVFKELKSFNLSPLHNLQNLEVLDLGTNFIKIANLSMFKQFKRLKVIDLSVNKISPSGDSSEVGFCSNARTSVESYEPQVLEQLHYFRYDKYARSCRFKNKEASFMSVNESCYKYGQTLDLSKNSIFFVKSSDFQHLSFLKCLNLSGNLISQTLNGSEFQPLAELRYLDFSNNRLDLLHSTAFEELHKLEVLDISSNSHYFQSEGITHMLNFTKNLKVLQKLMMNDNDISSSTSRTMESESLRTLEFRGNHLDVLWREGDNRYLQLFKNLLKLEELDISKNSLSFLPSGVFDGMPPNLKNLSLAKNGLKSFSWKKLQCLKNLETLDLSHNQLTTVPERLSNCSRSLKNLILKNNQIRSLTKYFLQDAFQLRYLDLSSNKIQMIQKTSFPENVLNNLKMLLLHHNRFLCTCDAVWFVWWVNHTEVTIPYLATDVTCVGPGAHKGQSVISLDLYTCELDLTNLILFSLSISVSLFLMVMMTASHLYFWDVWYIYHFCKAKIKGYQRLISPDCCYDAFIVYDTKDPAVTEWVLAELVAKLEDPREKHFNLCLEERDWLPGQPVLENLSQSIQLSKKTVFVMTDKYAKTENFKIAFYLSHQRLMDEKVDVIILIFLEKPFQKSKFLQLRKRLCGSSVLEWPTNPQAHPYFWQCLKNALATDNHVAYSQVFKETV
Procedure: The ability of compounds to activate human TLR7 and TLR8 was assessed in a cellular reporter assay using HEK293 cells transiently transfected with a TLR7 or TLR8 expression vector and NFκB-luc reporter construct. Briefly, HEK293 cells were grown in culture medium (DMEM supplemented with 10% FCS and 2 mM Glutamine). For transfection of cells in 10 cm dishes, cells were detached with Trypsin-EDTA, transfected with a mix of CMV-TLR7 or TLR8 plasmid (750 ng), NFκB-luc plasmid (375 ng) and a transfection reagent and incubated 48 hours at 37° C. in a humidified 5% CO2 atmosphere. Transfected cells were then detached with Trypsin-EDTA, washed in PBS and resuspended in medium to a density of 1.67×10^5 cells/mL. Thirty microliters of cells were then dispensed into each well in 384-well plates, where 10 μL of compound in 4% DMSO was already present. Following 6 hours incubation at 37° C., 5% CO2, the luciferase activity was determined by adding 15 μl of Steady Lite Plus substrate (Perkin Elmer) to each well and readout performed on a ViewLux ultraHTS microplate imager (Perkin Elmer). Dose response curves were generated from measurements performed in quadruplicates. Lowest effective concentrations (LEC) values, defined as the concentration that induces an effect which is at least two fold above the standard deviation of the assay, were determined for each compound.

[2] = test system: interferon production in human PBMC; test: Interferon production in human PBMC, read out on HEK-ISRE-luc reporter cells; type: cell-based; settings: lowest effective concentration, PBMC supernatant after overnight incubation transferred to HEK-ISRE-luc cells; for PBMC HEK-ISRE-luc (LEC; μM): 24 hours; for minimal effective concentration: Homo sapiens, PBMC, 24 h, read-out: PBMC HEK-ISRE-luc (LEC; μM)
Procedure: Activation of human TLR7 results in robust production of interferon by plasmacytoid dendritic cells present in human blood. The potential of compounds to induce interferon was evaluated by determination of interferon in the conditioned media from peripheral blood mononuclear cells (PBMC). The presence of interferon in the samples was determined, using an interferon reporter cell line stably expressing an interferon-stimulated responsive elements (ISRE)-luc reporter construct. The ISRE element with sequence GAAACTGAAACT (SEQ ID: 1) is highly responsive to the STAT1-STAT2-IRF9 transcription factor, which becomes activated upon binding of IFN-I to the IFN receptor. Briefly, PBMCs were prepared from buffy coats of at least two donors using a standard Ficoll centrifugation protocol. Isolated PBMCs were resuspended in RPMI medium supplemented with 10% human AB serum and 2×10^5 cells/well were dispensed into 384-well plates containing compounds (70 μL total volume). After overnight incubation of the PBMCs with the compounds, 10 μL of supernatant was transferred to 384-well plates containing 5×10^3 HEK-ISRE-luc cells/well in 30 μL (plated the day before). Following 24 hours of incubation, activation of the ISRE elements was measured by assaying luciferase activity using 40 μL/well Steady Lite Plus substrate (Perkin Elmer) and measured with ViewLux ultraHTS microplate imager (Perkin Elmer). The stimulating activity of each compound on the HEK-ISRE-luc cells was reported as LEC. The LEC in turn indicates the degree of ISRE activation on transfer of a defined amount of PBMC culture medium. Recombinant interferon alfa-2a (Roferon-A) was used as a standard control compound.

Row | HEK293 TLR7-NFκB-luc (LEC; μM) [1] [µM] | SMILES | PBMC HEK-ISRE-luc (LEC; μM) [2] [µM] | minimal effective concentration [2] [µM]
1 | 0.154 | Nc1nc2nc3c1nc(O)n3Cc1cccc(c1)C/C=C\CCO2 [Compound 1] | 0.081 | –
2 | 0.51 | Nc1nc2nc3c1nc(O)n3Cc1cccc(c1)CCCCCO2 [Compound 2] | – | 0.22
3 | 1.05 | Nc1nc2nc3c1nc(O)n3Cc1cccc(c1)C/C=C/CCCn1ccnc1-2 [Compound 3] | – | 0.14
4 | 3.27 | Nc1nc2nc3c1nc(O)n3Cc1cccc(c1)CCCCCCn1ccnc1-2 [Compound 4] | – | 0.64
5 | 0.24 | Nc1nc2nc3c1nc(O)n3Cc1cccc(c1)CC(=O)NCCCO2 [Compound 5] | – | 0.044
6 | >10 | Nc1nc2nc3c1nc(O)n3Cc1ccc(nc1)OCC(=O)NCCCO2 [Compound 6] | – | 1.73
7 | 0.87 | Nc1nc2nc3c1nc(O)n3Cc1cccc(c1)C/C=C/CCC(CO)N2 (centres unmarked) [Compound 7] | – | 0.31
8 | 2.42 | Nc1nc2nc3c1nc(O)n3Cc1cccc(c1)OCCCCN2 [Compound 8] | – | 0.68
9 | 0.30 | Nc1nc2nc3c1nc(O)n3Cc1cccc(n1)OCC(=O)NCCCO2 [Compound 9] | – | 0.098
10 | 5.26 | Nc1nc2nc3c1nc(O)n3Cc1cccc(c1)CCCCCC(CO)N2 (centres unmarked) [Compound 10] | – | 0.53
11 | 0.050 | Nc1nc2nc3c1nc(O)n3Cc1cccc(c1)OCCCCO2 [Compound 11] | – | 0.022
12 | 0.39 | Nc1nc2nc3c1nc(O)n3Cc1cccc(c1)OCCOCCO2 [Compound 12] | – | 0.043
13 | 14.69 | Nc1nc2nc3c1nc(O)n3Cc1cccc(c1)OCCOCCN2 [Compound 13] | – | 4.7
14 | 1.68 | Nc1nc2nc3c1nc(O)n3Cc1cccc(c1)OCCCCCN2 [Compound 14] | – | 0.51
15 | 0.12 | Nc1nc2nc3c1nc(O)n3Cc1cccc(c1)C/C=C/CCO2 [Compound 15] | – | 0.016
16 | 0.375 | Nc1nc2nc3c1nc(O)n3Cc1cccc(c1)C/C=C/CCCO2 [Compound 16] | – | 0.11
17 | 0.067 | Nc1nc2nc3c1nc(O)n3Cc1cccc(c1)C/C=C\CCO2 [Compound 17] | 0.013 | –
18 | 0.82 | Nc1nc2nc3c1nc(O)n3Cc1cccc(c1)OC/C=C/CCC(CO)N2 (centres unmarked) [Compound 18] | – | 0.056
19 | 2.24 | Nc1nc2nc3c1nc(O)n3Cc1cccc(c1)OCCCCCC(CO)N2 (centres unmarked) [Compound 19] | – | 0.14
20 | 0.74 | Nc1nc2nc3c1nc(O)n3Cc1cccc(c1)OCC/C=C\CO2 [Compound 20] | – | 0.15
21 | 0.3 | Nc1nc2nc3c1nc(O)n3Cc1cccc(c1)OCC/C=C/CO2 [Compound 21] | – | 0.05

Row | HEK293 TLR7-NFκB-luc (LEC; μM) [1] [µM] | SMILES | PBMC HEK-ISRE-luc (LEC; μM) [2] [µM] | minimal effective concentration [2] [µM]
22 | 0.12 | Nc1nc2nc3c1nc(O)n3Cc1cccc(c1)OC/C=C\CO2 [Compound 22] | – | 0.054
23 | 0.043 | Nc1nc2nc3c1nc(O)n3Cc1cccc(c1)OC/C=C/CO2 [Compound 23] | – | 0.012
24 | 1.05 | Nc1nc2nc3c1nc(O)n3Cc1cccc(n1)COCCCCO2 [Compound 24] | – | 0.15
25 | 20.22 | Nc1nc2nc3c1nc(O)n3Cc1ccc(nc1)OCC/C=C/CCO2 [Compound 25] | – | 3.61
26 | 0.027 | Nc1nc2nc3c1nc(O)n3Cc1cccc(c1)OC/C=C\CCO2 [Compound 26] | – | 0.093
27 | 1.31 | Nc1nc2nc3c1nc(O)n3Cc1cccc(c1)OC/C=C/CCO2 [Compound 27] | – | 0.11
28 | 0.77 | Nc1nc2nc3c1nc(O)n3Cc1cccc(c1)C/C=C/CCCN2 [Compound 28] | – | 0.26
29 | 0.81 | Nc1nc2nc3c1nc(O)n3Cc1cccc(c1)C/C=C/CCN2 [Compound 29] | – | 0.15
30 | 0.87 | Nc1nc2nc3c1nc(O)n3Cc1ccc(cc1)C/C=C/CCCCO2 [Compound 30] | – | 0.56
31 | 1.36 | Nc1nc2nc3c1nc(O)n3Cc1cccc(c1)CCCCCN2 [Compound 31] | – | 0.263
32 | 0.92 | Nc1nc2nc3c1nc(O)n3CCc1cccc(c1)OC/C=C/CO2 [Compound 32] | – | 0.12
33 | 0.17 | Nc1nc2nc3c1nc(O)n3Cc1cccc(c1)OC/C=C/CCCO2 [Compound 33] | – | 0.11
34 | 9.81 | Nc1nc2nc3c1nc(O)n3Cc1cccc(c1)C/C=C/CCCCO2 [Compound 34] | – | 0.032
35 | 1.68 | Nc1nc2nc3c1nc(O)n3Cc1cccc(=O)n1CCCCN2 [Compound 35] | – | 0.41
36 | 3.95 | Nc1nc2nc3c1nc(O)n3CCc1cccc(c1)C/C=C/CCO2 [Compound 82] | – | –
37 | 0.034 | Nc1nc2nc3c1nc(O)n3Cc1ccc(F)c(c1)OC/C=C/CO2 [Compound 87] | – | –
38 | 0.11 | Nc1nc2nc3c1nc(O)n3Cc1ccc(F)c(c1)OC/C=C\CO2 [Compound 88] | – | –
39 | 0.4 | Nc1nc2nc3c1nc(O)n3Cc1ccc(F)c(c1)OC/C=C\CN2 [Compound 89] | – | –
40 | 0.063 | Nc1nc2nc3c1nc(O)n3Cc1ccc(F)c(c1)OC/C=C/CN2 [Compound 90] | – | –
41 | 0.14 | Nc1nc2nc3c1nc(O)n3Cc1ccc(F)c(c1)OCCCCO2 [Compound 91] | – | –
42 | 0.47 | Nc1nc2nc3c1nc(O)n3Cc1ccc(F)c(c1)OCCCCN2 [Compound 92] | – | –
